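All cell lines were grown in 96-well plates and treated with compound for 48 hours. TGI denotes the concentration required for complete inhibition of growth.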
Key:
Test in all cases: NCI tumour cell line growth inhibition, 48 h
MOLT-4 leukemia = system: MOLT-4 leukemia
SF-295 CNS = system: SF-295 CNS
RPMI-8226 leukemia = system: RPMI-8226 leukemia
NCI/ADR-RES ovarian = system: NCI/ADR-RES ovarian
MCF7 breast = system: MCF7 breast
KM12 colon = system: KM12 colon
SK-MEL-28 melanoma = system: SK-MEL-28 melanoma
NCI-H226 lung = system: NCI-H226 lung
HOP-62 NSCLC = system: HOP-62 NSCLC
SNB-75 CNS = system: SNB-75 CNS

Structure (SMILES) | TGI (MOLT-4 leukemia) [µM] | TGI (SF-295 CNS) [µM] | TGI (RPMI-8226 leukemia) [µM] | TGI (NCI/ADR-RES ovarian) [µM] | TGI (MCF7 breast) [µM] | TGI (KM12 colon) [µM] | TGI (SK-MEL-28 melanoma) [µM] | TGI (NCI-H226 lung) [µM] | TGI (HOP-62 NSCLC) [µM] | TGI (SNB-75 CNS) [µM]
COC(=O)[C@H](C)N1C(=O)N[C@@H](C(C)C)C1=O | > 100 | > 100 | > 100 | > 100 | > 100 | > 100 | > 100 | > 100 | > 100 | > 100
COC(=O)c1sc(=S)sc1SCc1ccccc1CSc1sc(=S)sc1C(=O)OC | > 100 | > 100 | – | > 100 | > 100 | > 100 | > 100 | > 100 | > 100 | > 100
O=C(C1=C(C(=O)c2ccccc2)SC2(S1)C(C(=O)c1ccccc1)=C(C(=O)c1ccccc1)Sc1c2ssc1=O)c1ccccc1 | > 100 | > 100 | – | > 100 | > 100 | 92.7 | > 100 | 55 | > 100 | > 100
Cc1nnc2cc(C(=O)O)c3ccccc3n2c1=O | > 10 | > 10 | > 10 | > 10 | > 10 | – | > 10 | > 10 | > 10 | > 10
Cc1cc(S(=O)(=O)Nc2nnc3c(C(F)(F)F)cc(Cl)cn23)c(S)cc1Cl | > 100 | – | > 100 | > 100 | > 100 | > 100 | > 100 | > 100 | > 100 | > 100
Cc1ccc(C(=O)N(C(C)C)C(C)C)cc1N=NN(C)C | > 100 | > 100 | > 100 | > 100 | > 100 | > 100 | > 100 | > 100 | > 100 | –
CCOC(=O)c1ccc2nc(NC(=O)COC(=O)CSc3nc(C)cc(C)n3)sc2c1 | > 100 | > 100 | > 100 | > 100 | > 100 | > 100 | > 100 | – | 50.5 | 60.4
CCOC(=O)c1nc2c3c(ncn2n1)Oc1c(c(-c2ccccc2)nn1-c1ccccc1)C3c1ccc(Cl)cc1 (centres undefined) | – | > 100 | > 100 | > 100 | > 100 | > 100 | > 100 | > 100 | > 100 | > 100
OCC1OC(n2cnc3cccnc32)CC1O (centres undefined) | > 100 | > 100 | – | > 100 | > 100 | > 100 | > 100 | > 100 | > 100 | > 100
Cc1cc(C)c(S(=O)(=O)N(CCCCN)OCCCN)c(C)c1 | 28.6 | 37 | 26 | 36.5 | 35.3 | 35 | 32.4 | 31.8 | – | 27.5
Cc1cc(Cc2c(F)c(F)c(Cc3cc(C)no3)c(F)c2F)on1 | > 100 | > 100 | > 100 | > 100 | > 100 | – | > 100 | > 100 | 62.8 | 76.7
CC1(C)COC(c2cccc(C3=NC(C)(C)CO3)c2Br)=N1 | > 100 | – | > 100 | > 100 | > 100 | > 100 | > 100 | > 100 | > 100 | > 100
